The text below walks through data of article PMC4352855 (Scientific Reports, 2015).

In one assay the target is T1, Y427A-LLO (Listeria monocytogenes serovar 1/2a, UniProt P13128, Y427A).
T1 construct: His6 (C); made in house; host or cells: Escherichia coli BL21(DE3)
It is filed as biochemical. Particulars: mutant Y427A compared with LLO, Fig. 2b.

A further assay concerns the target T2, V428A-LLO (Listeria monocytogenes serovar 1/2a, UniProt P13128, V428A).
T2 construct: His6 (C); made in house; host or cells: Escherichia coli BL21(DE3)
It is filed as biochemical. The note with it: mutant V428A compared with LLO, Fig. 2b.

The target in a further assay is T3, S466A-LLO (Listeria monocytogenes serovar 1/2a, UniProt P13128, S466A).
T3 construct: His6 (C); made in house; host or cells: Escherichia coli BL21(DE3)
It is filed as biochemical. Particulars: mutant S466A compared with LLO, Fig. 2b.

Another assay addresses T4, S467A-LLO (Listeria monocytogenes serovar 1/2a, UniProt P13128, S467A).
T4 construct: His6 (C); made in house; host or cells: Escherichia coli BL21(DE3)
It is filed as biochemical. The note with it: mutant S467A compared with LLO, Fig. 2b.

Another assay has as its system L. monocytogenes. The note with it: cited from earlier work.
In another assay the target is T5, LLO (Listeria monocytogenes serovar 1/2a, UniProt P13128).
T5 construct: His6 (C); made in house; host or cells: Escherichia coli BL21(DE3)
Particulars: cited from earlier work.

Each structure is given as a SMILES string. Entries after “also recorded” stand apart in the source; their conditions may differ.

Turning to `O=c1c(O)c(-c2cc(O)c(O)c(O)c2)oc2cc(O)cc(O)c12` [Myr, myricetin], the “sensitivity to Myr in the inhibition of hemolytic activity” value on Y427A-LLO, at V428A-LLO, on S466A-LLO and on S467A-LLO was “less sensitive” in each case.
Take `O=c1c(O)c(-c2ccc(O)c(O)c2)oc2cc(O)ccc12` [fisetin]: the antimicrobial activity result in the assay with L. monocytogenes is listed as “without antimicrobial activity; also recorded: without anti-bacterial activity”. Moreover, the “effect on hemolytic activity of LLO” value on LLO is recorded as “inhibit its hemolytic activity; also recorded: attenuating the hemolytic activity of LLO”.
